Nine compounds from patent publication US5614521A, “Benzene derivatives having NGF production-promoting activity” (Sankyo Company, Limited, priority 1991, dated 1997) can be followed below.

In one experiment the test system is L-M cells. Put plainly: NGF production and secretion by mouse L-M cells (NGF promoter activity), NGF level by enzyme immunoassay. Type of experiment: cell-based. The conditions noted are these: 24 h, read-out: % Control (NGF produced and secreted relative to cells not treated with the test compounds). The text has this: Furukawa et al. have reported that fibroblast-forming L-M cells from mouse connective tissue can produce and secrete a relatively large amount of NGF, and that catecholamines accelerate such production and secretion of NGF (J. Biol. Chem., 261, 6039-6047, 1986). […] The test compounds of this invention were employed at 10 γ/ml, and the known compounds were employed at 20 γ/ml.
Culture medium 199 containing 0.5% peptone was used for culturing L-M cells (for the culture medium 199, see, for instance, Morgan et al., proc. Soc. Exp. Biol. Med., 73, 1 (1950) or Morgan et al. J. Natl. Cancer Inst., 16, 557 (1955). About […] of L-M cells were placed in each well of a culture plate with 24 wells, and cultured using a CO2 incubator (37° C., 5% CO2) until confluence. After removing the culture medium, the cultured cells were washed once with a wash solution which was 199 culture medium containing 0.5% bovine serum albumin (Fraction V, Sigma). The test compounds were added to a specified concentration to a 199 culture medium containing 0.5% bovine serum albumin, and used to treat 0.5 ml of L-M cells. After culturing the L-M cells in a CO2 incubator for 24 hours, the medium was recovered and the NGF level was determined.
NGF was quantitatively determined using an enzyme immunoassay [Korshing, Thoenen, et al. Proc. Natl. Acad. Sci. USA, 80, 3513-3516, (1983)]. 75 μl of a solution of anti-mouse β-NGF antibody (0.3 μg/ml, pH 9.6; Boehringer Mannheim) was piperted into each well of a polystyrene plate with 96 wells. After allowing the plate to stand at room temperature for an hour, the antibody was removed by washing three times with the wash solution. 50 μl of a solution of standard β-NGF (Wako Pure Chemical Industries Ltd.) or of the recovered medium was piperted into the wells. After allowing the plate to stand for […] at room temperature,the standard β-NGF or test solution was removed and each well was washed three times. 50 μl of a solution of β-NGF monoclonal antibody (100 mU/ml, pH 7.0; BoehringerMannheim) labelled with β-galactosidase was piperted into each well. After allowing the plate to stand at 4° C. for 15-18 hours, enzyme labelled antibody was removed and the wells washed three times followed by pipetting 100 μl of a solution of chlorophenol red-β-D-galactopyranoside (1 mg/ml, pH 7.3; BoehringerMannheim) into each well. Color was allowed to develop (after 2-3 hours at room temperature), and the absorbance was determined at 570 nm.
The amount of NGF was calculated from a standard curve. The results are expressed as a relative value (%) which is relative to the amount of NGF produced and secreted by cells treated not with the test compounds. The numerical values (% Control) are expressed by the mean value in the 3 wells of the control (without addition of the test compounds).
Turning to `CNC[C@H](O)c1ccc(O)c(O)c1` [epinephrine, reference compound], the activity at 20 µg/mL turned out to be 140 ± 24%.

The same experiment, now with this note: known compounds at 20 γ/ml, L-M cells, 24 hours, 37° C., read-out: % Control (NGF produced and secreted relative to cells not treated with the test compounds).
Take `N[C@@H](Cc1ccc(O)c(O)c1)C(=O)O` [L-DOPA, reference compound]: the activity at 20 µg/mL turned out to be 117 ± 7%.
Still for that read-out and setting: as for `O=C(O)/C=C/c1ccc(O)c(O)c1` [caffeic Acid, reference compound], the figure is 123 ± 14%; as for `CC(C)NCC(O)c1ccc(O)c(O)c1` (stereo not drawn) [isoproterenol, reference compound], 168 ± 22%.

Staying with this experiment, now noted: test compounds of this invention at 10 γ/ml, L-M cells, 24 hours, 37° C., read-out: % Control (NGF produced and secreted relative to cells not treated with the test compounds).
Take `Nc1ccc(CCC(=O)NC23CC4CC(CC(C4)C2)C3)cc1N` [Example 22, N-(1-Adamantyl)-3-(3,4-diaminophenyl)propionamide]: the activity at 10 µg/mL is 380%.
Take `Nc1ccc(CCC(=O)Nc2cnc3ccccc3c2)cc1N` [Example 34, N-(3-Quinolyl)-3-(3,4-diaminophenyl)propiomide]: the activity at 10 µg/mL is 606%.
As to `Nc1ccc(CCC(=O)N(c2ccccc2)c2ccccc2)cc1N` [Example 40, N,N-Diphenyl-3-(3,4-diaminophenyl) propionamide], the activity at 10 µg/mL is 276%.
On the same count and under the same terms, for `Nc1ccc(CCC(=O)Nc2ccc(C(=O)c3ccccc3)cc2)cc1N` [Example 43, N-(4-Benzoylphenyl)-3-(3,4-diaminophenyl)propionamide] the value was 491%.
In the case of `Nc1cc(CCC(=O)NC2CCc3ccccc32)ccc1O` (stereo not drawn) [Example 53, N-(1-Indanyl)-3-(4-hydroxy-3-aminophenyl)propionamide], the activity at 10 µg/mL came to 315%.
